Data on two compounds can be found in PMC12584752, “Covalent fragment screening to inhibit the E3 ligase activity of bacterial NEL enzymes SspH1 and SspH2” (RSC Chemical Biology, 2025).

The test system of one data set is HEK293T cells. As to the kind of experiment: Cell toxicity observed during in-cell treatment. It is filed as cell-based, human. The conditions noted are these: 50 μM, four hours. How it is done: We next interrogated whether compounds 6 or 7 could engage SspH1 or SspH2 in live human cells. To simplify experimental setup, we opted for NEL overexpression in mammalian cells, coupled with chemoproteomics, over a Salmonella infection-based assay. SspH1 or SspH2 were transiently expressed in HEK293T cells (Fig. S6), and cells treated with 50 μM of either compound 6 or 7 for four hours. […] Following cell lysis, we again utilized an IA-DTB chemoproteomics workflow to assess cysteine engagement.[52] Peptides engaging with compound 6 were identified with an average log2 CR ≤ −1 and P-value ≤0.05 when compared to DMSO controls (Fig. 5C and D). […] However, none of these included catalytic cysteines-containing peptides of HECT or RBR E3 ligases, nor of DUBs. Therefore, compound 6 provides a useful starting point for medicinal chemistry campaigns to design potent and specific tool compounds for SspH1 and SspH2.
All cells were grown in DMEM media (Gibco, 41966-029) supplemented with FBS (ThermoFisher, A5256701) and Pen/Strep (Gibco, 15140-122) at 37 °C with 5% CO2. SspH1 (aa 1–700) and SspH2 (aa 1–786) genes were cloned separately into […] plasmids. HEK293T cells were seeded in 6-well plates at a density of 2 × 10^5 cells per well. […] Protein concentrations were measured using a Rapid BCA Gold Protein Assay Kit (Thermo Scientific, A53226) and diluted to 1 mg mL^−1 with lysis buffer. […]

A further data set addresses SspH1 (161–700) (Salmonella typhimurium, UniProt D0ZVG2). As to the kind of experiment: E2–Ub discharge assay. It is filed as biochemical. Set-up: Recombinant IpaH9.8 (21–545) and SspH1 (161–700) were incubated at 0.5 μM; His-tag (N, cleaved yes); made in house; host or cells: E. coli BL21. The conditions noted are these: SspH1 pre-labelled with compound overnight at RT; UbcH5A–Ub-cy3 1 μM, 0–30 minutes. The text has this:
We next wanted to understand whether compounds 6 and 7 interfered with SspH1 E3 activity and turned to in vitro assays to assess E3 ligase activity. In the absence of substrate, NEL E3 ligases non-productively discharge ubiquitin from the E2–Ub thioester, a reaction that proceeds via an unstable E3-thioester intermediate.[27] This activity can be followed by E2–Ub discharge assays (Fig. 4A). We compared discharge activity of SspH1 with UbcH5A–Ub-cy3 (E2–Ub*) pre-treated with a DMSO control or compounds 6 or 7 (Fig. 4B). To ensure complete compound labelling, SspH1 was pre-incubated with the compounds overnight at room temperature, as opposed to at 4 °C which enabled us to study kinetics previously.
Fig. 4 SspH1 in vitro inhibition with compounds 6 and 7. (A) Discharge assay schematic; (B) E2–Ub discharge time course assay with SspH1 pre-treated with either DMSO or compounds 6 or 7. UbcH5A–Ub-cy3 (1 μM) was incubated at RT for 0–30 minutes with SspH1 (residues 161–700, 50 nM) which had been pre-labelled with 6 or 7 at RT overnight. (C) Substrate ubiquitination assay schematic; (D) PKN1 ubiquitination time course assay with SspH1 pre-treated with either DMSO or compounds 6 or 7. […]

The structures appear in SMILES notation.

SspH1 (161–700), sequence (D0ZVG2 161-700): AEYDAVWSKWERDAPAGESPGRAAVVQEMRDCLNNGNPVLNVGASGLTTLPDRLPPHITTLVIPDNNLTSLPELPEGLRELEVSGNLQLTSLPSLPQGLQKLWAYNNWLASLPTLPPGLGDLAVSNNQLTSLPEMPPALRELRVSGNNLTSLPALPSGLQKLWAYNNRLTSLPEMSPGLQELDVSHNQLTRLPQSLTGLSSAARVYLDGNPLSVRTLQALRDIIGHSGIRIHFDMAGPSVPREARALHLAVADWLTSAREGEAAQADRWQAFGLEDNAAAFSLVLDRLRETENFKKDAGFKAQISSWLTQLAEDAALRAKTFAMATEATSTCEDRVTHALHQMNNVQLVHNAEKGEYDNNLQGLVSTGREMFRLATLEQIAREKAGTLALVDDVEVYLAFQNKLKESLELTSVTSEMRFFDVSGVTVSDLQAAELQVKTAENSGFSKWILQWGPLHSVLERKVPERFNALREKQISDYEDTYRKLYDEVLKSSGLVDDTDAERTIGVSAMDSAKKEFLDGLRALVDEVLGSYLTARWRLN

With `Cc1cc(-c2nc3ccccc3n2C2CCN(C(=O)CCl)CC2)cc(C)c1O.Cl` [compound 6], in the data set with HEK293T cells, the cell toxicity result was “no apparent cell toxicity”. Besides, on SspH1 (161–700), the “SspH1 E2–Ub discharge activity” value was “completely abrogated”.

Consider `Cl.O=C(CCl)N1CCC(n2c(-c3ccc(C(F)(F)F)cc3)nc3ccccc32)CC1` [compound 7], for which the cell toxicity result in the data set with HEK293T cells was “significant effects on cell attachment and potential toxicity”. Moreover, on SspH1 (161–700), the “SspH1 E2–Ub discharge activity” value is reported as “completely abrogated”.
